Laboratory results taken from ChEMBL document CHEMBL5608257, “Structure-Based Optimization of a Series of Covalent, Cell Active Bfl-1 Inhibitors” (J Med Chem, 2024).

How the values were obtained:
Bcl-2-related protein A1 [1] = target: T1, Bcl-2-related protein A1 (Homo sapiens, UniProt Q16548); experiment: Inhibition of N-terminal His6-tagged recombinant Bfl-1 (1 to 151 residues)(unknown origin) extracted from Escherichia coli BL21-Gold (DE3) using HyLite Fluor 647-labeled Bim peptide as substrate incubated for 120 mins by TR-FRET assay
T1 sequence (Q16548 whole entry): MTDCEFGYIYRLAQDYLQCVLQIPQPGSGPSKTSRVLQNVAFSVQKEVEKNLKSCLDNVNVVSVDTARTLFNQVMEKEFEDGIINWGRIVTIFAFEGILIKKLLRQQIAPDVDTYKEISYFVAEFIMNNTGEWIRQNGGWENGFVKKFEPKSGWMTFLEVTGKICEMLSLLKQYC

Bcl-2-related protein A1 [2] = target: T1, Bcl-2-related protein A1; experiment: Inhibition of Bfl-1 in human SU-DHL-1 cells assessed as caspase-3/7 activation measured after 6 hrs by UPLC-MRM MS analysis; format: cell-based
[3] = target: Induced myeloid leukemia cell differentiation protein Mcl-1 (Homo sapiens, UniProt Q07820); experiment: Inhibition of Mcl-1 (unknown origin)
Chain of Induced myeloid leukemia cell differentiation protein Mcl-1 (Q07820 whole entry): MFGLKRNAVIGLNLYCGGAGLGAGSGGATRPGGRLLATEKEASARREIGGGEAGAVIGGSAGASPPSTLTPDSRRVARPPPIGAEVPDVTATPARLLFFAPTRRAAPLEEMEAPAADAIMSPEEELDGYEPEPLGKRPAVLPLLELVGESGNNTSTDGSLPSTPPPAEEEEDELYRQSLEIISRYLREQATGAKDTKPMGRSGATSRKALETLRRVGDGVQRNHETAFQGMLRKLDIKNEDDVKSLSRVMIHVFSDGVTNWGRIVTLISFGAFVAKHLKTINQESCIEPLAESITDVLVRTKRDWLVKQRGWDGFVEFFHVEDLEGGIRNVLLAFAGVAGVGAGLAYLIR

IC50 (Bcl-2-related protein A1 [1]) [nM] | EC50 (Bcl-2-related protein A1 [2]) [nM] | IC50 [3] [nM] | Compound
340 |  |  | C=CC(=O)N(Cc1ccc(Cl)cc1)c1ccc(O[C@@H]2CC[C@@H](N)C2)cc1
5100 |  |  | C=CC(=O)N(Cc1ccc(Cl)cc1)c1ccc(O[C@H]2CC[C@H](N)C2)cc1
450 | 7400 |  | C=CC(=O)N(Cc1ccc(Cl)cc1)c1ccc(O[C@@H]2CC[C@@H](N)C2)cc1 (racemic)
460 |  |  | C=CC(=O)N(Cc1ccc(Cl)cc1)c1ccc(O[C@@H]2CC[C@@H](NC(C)=O)C2)cc1 (racemic)
350 | 3700 |  | C=CC(=O)N(Cc1ccc(Cl)c(C#N)c1)c1ccc(O[C@@H]2CC[C@@H](N)C2)cc1 (racemic)
360 |  |  | C=CC(=O)N(Cc1ccc(Cl)cc1)c1ccc(O[C@@H]2CC[C@@H](NC(=O)NC)C2)cc1 (racemic)
380 |  |  | C=CC(=O)N(Cc1ccc(Cl)cc1)c1ccc(O[C@@H]2CC[C@@H](NC)C2)cc1 (racemic)
440 |  |  | C=CC(=O)N(Cc1ccc(Cl)cc1)c1ccc(O[C@@H]2CC[C@@H](N(C)C)C2)cc1 (racemic)
22000 |  |  | C=CC(=O)N(Cc1ccc(Cl)cc1)c1ccc(O[C@@H]2CC[C@@H](N(C)C(C)=O)C2)cc1 (racemic)
720 | 2600 |  | C=CC(=O)N(Cc1ccc(C(F)(F)F)cc1)c1ccc(O[C@@H]2CC[C@@H](N)C2)cc1 (racemic)
42000 |  |  | C=CC(=O)N(Cc1ccc(Cl)cc1)c1ccc(O[C@H]2CC[C@@H](N)C2)cc1 (racemic)

Continued, compound first:

Compound | IC50 (Bcl-2-related protein A1 [1]) [nM] | EC50 (Bcl-2-related protein A1 [2]) [nM] | IC50 [3] [nM]
C=CC(=O)N(Cc1ccc(Cl)cc1)c1ccc(F)cc1 | 5100 |  | 
C=CC(=O)N(Cc1ccc(OC)cc1)c1ccccc1 | > 100000 |  | 
C=CC(=O)N(Cc1ccc(OC)cc1)c1ccccc1Cl | 29000 |  | 
C=CC(=O)N(Cc1ccc(Cl)cc1)c1ccc(OC)cc1 | 9800 |  | 
C=CC(=O)N(c1ccc(O[C@@H]2CC[C@@H](N)C2)cc1)[C@@H](C)c1ccc(C(F)(F)F)c(C#N)c1 | 22 | 370 | > 100000
C=CC(=O)N(c1ccc(O[C@@H]2CC[C@@H](N)C2)cc1)[C@H](C)c1ccc(C(F)(F)F)c(C#N)c1 | 1600 | 6900 | 
C=CC(=O)N(Cc1ccc(OC)cc1)c1ccc(Cl)cc1 | 19000 |  | 
C=CC(=O)N(Cc1ccc(C#N)c(Cl)c1)c1ccc(O[C@@H]2CC[C@@H](N)C2)cc1 (racemic) | 550 |  | 
C=CC(=O)N(Cc1ccc(C(F)(F)F)c(C#N)c1)c1ccc(O[C@@H]2CC[C@@H](N)C2)cc1 (racemic) | 300 | 1800 | 
